Biological target: histone deacetylase (HDAC)
Test: Inhibition of Histone Deacetylase Enzymatic Activity
Format: biochemical
Conditions: substrate Boc-Lys(Ac)-AMC, Fluor-de-Lys developer, 37° C., 20 min; against one or more of HDAC-1 to HDAC-11, SirT1 to SirT7 (isoform not given); read-out: HDAC Inhibitory Activity (IC50)
How it was run: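 Enzyme preincubated with compound at room temperature in 25 mM HEPES pH 8.0, 137 mM NaCl, 2.7 mM KCl, 1 mM MgCl2; reaction started at 37 °C with Boc-Lys(Ac)-AMC substrate. Fluorescence read ex 360/em 470 nm after 10 min dark incubation; activity binned into ranges A–D (<0.05 to <10 μM).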

| SMILES | IC50 |
| --- | --- |
| O=C(NO)c1ccc2c(c1)NC(=O)[C@@H](CC1CCCCC1)NC2=O [Compound 97g, (R)-3-(Cyclohexylmethyl)-N-hydroxy-2,5-dioxo-2,3,4,5-tetrahydro-1H-benzo[e][1,4]diazepine-8-carboxamide] | 2000 to 10000 nM |
| O=C(NO)c1ccc2c(c1)NC(=O)[C@H](CC1CCCCC1)NC2=O [Compound 97h, (S)-3-(Cycbohexylmethyl)-N-hydroxy-2,5-dioxo-2,3,4,5-tetrahydro-1H-benzo[e][1,4]diazepine-8-carboxamide] | 500 to 2000 nM |
| O=C(NO)c1ccc2c(c1)NC(=O)[C@H](c1ccccc1)NC2=O [Compound 97i, (S)-N-Hydroxy-2,5-dioxo-3-phenyl-2,3,4,5-tetrahydro-1H-benzo[e][1,4]diazepine-8-carboxamide] | 2000 to 10000 nM |
| O=C(NO)c1ccc2c(c1)NC(=O)[C@@H](c1ccccc1)NC2=O [Compound 97j, (R)-N-Hydroxy-2,5-dioxo-3-phenyl-2,3,4,5-tetrahydro-1H-benzo[e][1,4]diazepine-8-carboxamide] | 2000 to 10000 nM |
| O=C1CNC(=O)c2ccc(C(=O)NO)cc2N1 [Compound 97k, N-Hydroxy-2,5-dioxo-2,3,4,5-tetrahydro-1H-benzo[e][1,4]diazepine-8-carboxamide] | 2000 to 10000 nM |
| O=C(NO)c1ccc(O[C@H]2C[C@@H](C(=O)Nc3cccc4cccnc34)N(C(=O)OCc3ccccc3)C2)cc1 [Compound 109a, (2S,4S)-Benzyl 4-(4-(hydroxycarbamoyl)phenoxy)-2-(quinolin-8-ylcarbamoyl)pyrrolidine-1-carboxylate] | 50 to 500 nM |
| O=C(NO)c1ccc(O[C@@H]2C[C@@H](C(=O)Nc3cccc4cccnc34)N(C(=O)OCc3ccccc3)C2)cc1 [Compound 109b, (2S,4R)- Benzyl 4-(4-(hydroxycarbamoyl)phenoxy)-2-(quinolin-8-ylcarbamoyl) pyrrolidine-1-carboxylate] | 50 to 500 nM |
| O=C(NO)c1ccc(O[C@H]2C[C@H](C(=O)Nc3cccc4cccnc34)N(C(=O)OCc3ccccc3)C2)cc1 [Compound 109c, (2R,4S)- Benzyl 4-(4-(hydroxycarbamoyl)phenoxy)-2-(quinolin-8-ylcarbainoyl) pyrrolidine-1-carboxylate] | 50 to 500 nM |
| O=C(NO)c1ccc(CN2C(=O)CNC(=O)[C@H]2Cc2cccs2)cc1 [Compound 136c, (R)-4-((3,6-Dioxo-2-(thien-2-ylmethyl)piperazin-1-yl)methyl)-N-hydroxybenzamide] | 50 to 500 nM |

Results, then the compound that gave them:

| IC50 | SMILES |
| --- | --- |
| 500 to 2000 nM | O=C(CCO[C@@H]1C[C@@H](C(=O)Nc2cccc3cccnc23)N(C(=O)OCc2ccccc2)C1)NO [Compound 112a, (2S,4R)-benzyl 4-(3-(hydroxyamino)-3-oxopropoxy)-2-(quinolin-8-ylcarbamoyl)pyrrolidine-1-carboxylate] |
| 500 to 2000 nM | O=C(CO[C@@H]1CC(C(=O)Nc2cccc3cccnc23)N(C(=O)OCc2ccccc2)C1)NO (stereo partly drawn) [Compound 112b, (2S,4R)-benzyl 4-(2-(hydroxyamino)-2-oxoethoxy)-2-(quinolin-8-ylcarbainoyl) pyrrolidine-1-carboxylate] |
| 500 to 2000 nM | O=C(CCO[C@@H]1C[C@H](C(=O)Nc2cccc3cccnc23)N(C(=O)OCc2ccccc2)C1)NO [Compound 112c, (2R,4R)-benzyl 4-(3-(hydroxyamino)-3-oxopropoxy)-2-(quinolin-8-ylcarbamoyl) pyrrolidine-1-carboxylate] |
| < 50 nM | O=C(NO)c1ccc(NC(=O)N2c3ccccc3NC(=O)[C@H]2Cc2ccc(F)c(F)c2)cc1 [Compound 116, (R)-2-(3,4-Difluorobenzyl)-N-(4-(hydroxycarbamoyl)phenyl)-3-oxo-3,4-dihydroquinoxaline-1(2H)-carboxamide] |
| 50 to 500 nM | O=C(NO)c1cccc(NC(=O)N2c3ccccc3NC(=O)[C@H]2Cc2ccc(F)c(F)c2)c1 [Compound 118, (R)-2-(3,4-difluorobenzyl)-N-(3-(hydroxycarbamoyl)phenyl)-3-oxo-3,4-dihydroquinoxaline-1(2H)-carboxamide] |
| < 50 nM | O=C(NO)c1cnc(N[C@H]2C[C@@H](C(=O)Nc3cccc4cccnc34)N(C(=O)OCc3ccccc3)C2)nc1 [Compound 122, (2S,4S)-Benzyl 4-(5-(hydroxycarbamoyl)pyrimidin-2-ylamino)-2-(quinolin-8-ylcarbamoyl)pyrrolidine-1-carboxylate] |
| < 50 nM | O=C(NO)c1ccc(CN2C(=O)CNC(=O)[C@H]2Cc2c[nH]c3ccccc23)cc1 [Compound 136a, (R)-4-((2-((1H-Indol-3-yl)methyl)-3,6-dioxopiperazin-1-yl)methyl)-N-hydroxybenzamide] |
| < 50 nM | O=C(NO)c1ccc(CN2C(=O)CNC(=O)[C@H]2Cc2ccccc2)cc1 [Compound 136b, (R)-4-((2-Benzyl-3,6-dioxopiperazin-1-yl)methyl)-N-hydroxybenzamide] |

Reference: patent publication US20070155730A1, “Benzodiazepine And Benzopiperazine Analog Inhibitors Of Histone Deacetylase” (METHYLGENE, INC., priority 2005, published 2007)
